pEC50, pIC50: −log10 of the molar value. Like-named read-outs stand apart in the source and are kept apart here.
What was measured:
HSV1 = experiment: Viral qPCR assay, HSV1; type: cell-based; settings: infected cells, viral genome copies by qPCR normalized to PPIA, read-out: HSV1 Cell EC50
Description: (§1) MRC5 cells, Vero cells, and MeWo cells were obtained from ATCC, and were maintained at 37° C./5% CO2/90% relative humidity in Minimal Essential Medium with 10% fetal bovine serum, […] L-glutamine, 100 units/ml penicillin and 100 ug/ml streptomycin. Assay plates were prepared by dispensing compounds dissolved in DMSO into wells of 384 well collagen-coated plates using an ECHO acoustic dispenser. Each test compound was tested in a 10-point, serial 3-fold dilution. Controls included uninfected cells and infected cells treated only with DMSO. Assays were initiated by mixing selected cells, in suspension, with virus, and dispensing 50 μl/well infected cells to pre-plated compounds. Plates were incubated at 37° C./5% CO2/90% relative humidity for ˜72 hrs to permit genomic replication, and infected cells were lysed by the addition of an equal volume of lysis buffer (10 mM Tris-HCl, pH8, 50 mM KCl, 2 mM MgCl2, 0.45% NP-40, 0.45% Tween-20, and 100 µg/ml proteinase K). An aliquot of the lysate was then transferred to a 384-well PCR plate and incubated at 56° C. for 1 hour, and then at 95° C. for 10 minutes. Levels of the selected viral gene and of the cellular control, PPIA, were measured in separate 10 μl qPCR assays using TaqMan® Gene Expression Master Mix (Applied Biosystems), and an 7900HT Fast Real-Time PCR System with 384-Well Block Module. 7-point, serial 10-fold dilutions of a plasmid standard were run on each plate to generate a standard curve, and genome copies numbers were calculated by plotting experimental Ct onto linear regression of the standard curve. Viral genome copy numbers were normalized by cellular control copy number, and compound effects were normalized to the window defined by the controls. Calculated % effects were fit using a 4-parameter algorithm, and EC50 was reported.

[1] = biological target: Human cytomegalovirus DNA polymerase (Human cytomegalovirus (strain AD169) (HHV-5) (Human herpesvirus 5), UniProt P08546); experiment: CMV polymerase assay (AlphaLISA); type: biochemical; settings: HCMV polymerase 0.2 nM, 30 min pre-incubation, 60 minute at 37° C.
Description: (§2) Human cytomegalovirus and varicella zoster virus DNA polymerases were expressed via baculovirus vector in SF21 cells and purified. Heterodimeric nucleic acid substrate used in the herpesvirus polymerase reactions were generated by annealing a 59-mer template to a 17-mer digoxigenin-labeled primer. Polymerase (HCMV final concentration of 0.2 nM; VZV final concentration of 0.4 nM) was combined with an inhibitor compound or DMSO in assay buffer (10 mM HEPES, pH 7.5, 25 mM KCl, 25 mM NaCl, 5 mM MgCl2, 5% glycerol, 0.67 mg/ml bovine serum albumin, and 1 mM tris(2-carboxyethyl)phosphine)), and this mixture was pre-incubated for 30 minutes at room temperature in 384-well microtiter plates. The polymerization reaction was initiated by the addition of template/primer substrate (final concentration: 1.6 nM), and dNTPs (final concentration: 24 nM dCTP, 24 nMdGTP, 16 nM dATP, 16 nM dTTP, and 0.8 nM biotin-dUTP). After a 60 minute incubation period at 37° C., the reactions were terminated using quench buffer (25 mM HEPES pH 7.5, 100 mM NaCl, 0.25% Tween-20, 12 mM EDTA, and 1 mg/ml bovine serum albumin). Incorporation of biotinylated UTP was detected with 2.5-5 μg/mL anti-DIG AlphaLISA acceptor beads and 5-10 μg/mL streptavidin AlphaLISA donor beads (PerkinElmer). Compound effects were normalized to the window defined by the controls (DMSO only and pre-quenched wells), and were fit using a 4-parameter algorithm to report an IC50.

[2] = biological target: varicella zoster virus DNA polymerase (Varicella-zoster virus (strain Dumas) (HHV-3) (Human herpesvirus 3), UniProt P09252); experiment: VZV polymerase assay (AlphaLISA); type: biochemical; settings: VZV polymerase 0.4 nM, 30 min pre-incubation, 60 minute at 37° C.
Description: as §2

CMV = experiment: Viral qPCR assay, CMV; type: cell-based; settings: infected cells, viral genome copies by qPCR normalized to PPIA, read-out: CMV Cell EC50
Description: as §1

HSV2 = experiment: Viral qPCR assay, HSV2; type: cell-based; settings: infected cells, viral genome copies by qPCR normalized to PPIA, read-out: HSV2 Cell EC50
Description: as §1

| Structure (SMILES) | pEC50 (HSV1; Human alphaherpesvirus 1, 72 h) | pIC50 [1] | pIC50 [2] | pEC50 (CMV; Human betaherpesvirus 5, 72 h) | pEC50 (HSV2; Human alphaherpesvirus 2, 72 h) | pEC50 (HSV1; ~72 hrs) | pEC50 (CMV; ~72 hrs) | pEC50 (HSV2; ~72 hrs) |
| --- | --- | --- | --- | --- | --- | --- | --- | --- |
| CC(O)Cc1nc2ccn(Cc3ccc(Cl)cc3)c(=O)c2cc1O[C@H]1CCN2C(=O)OC[C@@H]2C1 (single isomer, unassigned) [Example 33] | 6.58 | 8.13 | 7.89 | 6.81 | 6.63 | – | – | – |
| C[C@@H]1CN(C2CCOC2)CCN1c1ccc2ncn(Cc3ccc(Cl)cc3)c(=O)c2c1 (single isomer, unassigned) [Example 44] | 5.84 | 7.11 | 6.84 | 6.28 | 5.90 | – | – | – |
| CC1CN(C)CCC1(F)c1ccc2ncn(Cc3ccc(Cl)cc3)c(=O)c2c1 (single isomer, unassigned) [Example 47] | 5.80 | 7.08 | 6.99 | 6.26 | 5.86 | – | – | – |
| Cc1nc2cc(C3CC(O)C3)c(O[C@H]3CCN4C(=O)OC[C@@H]4C3)cc2c(=O)n1Cc1ccc(Cl)cc1 (single isomer, unassigned) [Example 61] | – | 8.19 | 7.96 | – | – | 6.60 | 6.76 | 6.69 |
| Cc1nc2cc(C3CC(O)C3)c(O[C@H]3CCN4C(=O)OC[C@@H]4C3)cc2c(=O)n1Cc1ccc(Cl)cc1 (single isomer, unassigned) [Example 62] | – | 9.00 | 8.32 | – | – | 6.95 | 7.24 | 7.24 |
| Cc1nc2cc(C3CC(C)(O)C3)c(O[C@H]3CCN4C(=O)OC[C@@H]4C3)cc2c(=O)n1Cc1ccc(Cl)cc1 (single isomer, unassigned) [Example 77] | 6.80 | 8.51 | 8.47 | 6.66 | 6.78 | – | – | – |
| Cc1nc2cc(C3CC(N)C3)c(O[C@H]3CCN4C(=O)OC[C@@H]4C3)cc2c(=O)n1Cc1ccc(C#N)cc1 (single isomer, unassigned) [Example 83] | 5.17 | 7.72 | 7.70 | 5.34 | 4.68 | – | – | – |
| Cc1nc2cc(C3CCC3O)c(O[C@H]3CCN4C(=O)OC[C@@H]4C3)cc2c(=O)n1Cc1ccc(C#N)cc1 (single isomer, unassigned) [Example 85] | 6.17 | 8.00 | 7.96 | 6.47 | 6.13 | – | – | – |
| O=C1OC[C@@H]2C[C@@H](Oc3cnc4c(C5CC5)cn(Cc5ccc(Cl)cc5)c(=O)c4c3)CCN12 [Example 1] | – | 7.16 | 7.12 | – | – | 5.57 | 5.98 | 5.81 |
| O=C1OC[C@@H]2C[C@@H](Oc3cc4c(=O)n(Cc5ccc(Cl)cc5)ccc4cn3)CCN12 [Example 2] | – | 7.31 | 7.36 | – | – | 5.77 | 6.06 | 5.98 |
| Cc1nc2cc(CC(C)(C)O)c(O[C@H]3CCN4C(=O)OC[C@@H]4C3)cc2c(=O)n1Cc1ccc(Cl)cc1 [Example 3] | – | 8.62 | 9.30 | – | – | 7.12 | 7.43 | 7.26 |
| Cc1nc2cc(-c3cnn(C(F)F)c3)c(O[C@H]3CCN4C(=O)OC[C@@H]4C3)cc2c(=O)n1Cc1ccc(Cl)cc1 [Example 4] | – | 8.96 | 8.51 | – | – | 7.22 | 7.29 | 7.59 |
| Cc1nc2cc(-c3cnn(C(F)F)c3)c(O[C@H]3CCN4C(=O)OC[C@@H]4C3)cc2c(=O)n1Cc1ccc(C#N)cc1 [Example 6] | – | 8.74 | 8.30 | – | – | 7.33 | 7.25 | 7.54 |
